One series concerns recombinant NL4-3 virus. Nature of the series: HIV cell culture assay (antiviral activity, luciferase readout in MT-2 cells). Format: cell-based. To be noted: Human immunodeficiency virus 1, NL43, MT2. The gist of the method: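 MT-2 cells infected for 4-5 days with NL4-3 reference virus carrying Renilla luciferase in place of part of nef, in presence of serial compound dilutions. Luciferase activity read with live-cell substrate. EC50 derived from median effect equation, slope parameter m.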

The nature of series [1]: Compound cytotoxicity, XTT-based colorimetric assay. It is filed as cell-based. The note with it: human; uninfected MT2 cells, day 4, XTT; read-out: CC50. The gist of the method: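 Run under the antiviral-assay protocol but without virus. Viability was read on day 4 and CC50 values were derived from the readout.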
A general note: Formazan colour is commonly taken as a measure of viable cells.

With `C[C@@H]1CN(c2ccc3c(=O)n(-c4ccc(Cl)c5c(NS(C)(=O)=O)nn(CC(F)F)c45)c([C@H](Cc4cc(F)cc(F)c4)NC(=O)Cn4ccc(C(C)(C)C)n4)nc3c2)C[C@H](C)O1` (atropisomer, axis not shown; (P)) [Example 49, 2-(3-(tert-butyl)-1H-pyrazol-1-yl)-N—((S)-1-((3P)-3-(4-chloro-1-(2,2-difluoroethyl)-3-(methylsulfonamido)-1H-indazol-7-yl)-7-((2S,6R)-2,6-dimethylmorpholino)-4-oxo-3,4-dihydroquinazolin-2-yl)-2-(3,5-difluorophenyl)ethyl)acetamide], the EC50 (usually the concentration giving half of the maximal effect) in the series with recombinant NL4-3 virus was 2.7 nM. For the same molecule, the CC50 (as a rule, the concentration giving 50% cytotoxicity) at 4 days in series [1] is over 500 nM.
On the same counts, the results for `C[C@@H]1CN(c2ccc3c(=O)n(-c4ccc(Cl)c5c(NS(C)(=O)=O)nn(CC(F)F)c45)c([C@H](Cc4cc(F)cc(F)c4)NC(=O)Cn4ccc(C5CCC5)n4)nc3c2)C[C@H](C)O1` (atropisomer, axis not shown; (P)) [Example 50, N—((S)-1-((3P)-3-(4-chloro-1-(2,2-difluoroethyl)-3-(methylsulfonamido)-1H-indazol-7-yl)-7-((2S,6R)-2,6-dimethylmorpholino)-4-oxo-3,4-dihydroquinazolin-2-yl)-2-(3,5-difluorophenyl)ethyl)-2-(3-cyclobutyl-1H-pyrazol-1-yl)acetamide] are 0.91 nM and over 500 nM.
As for `C[C@@H]1CN(c2ccc3c(=O)n(-c4ccc(Cl)c5c(NS(C)(=O)=O)nn(C)c45)c([C@H](Cc4cc(F)cc(F)c4)NC(=O)Cc4cn(C5CC5)c5ccccc45)nc3c2)C[C@H](C)O1` (atropisomer, axis not shown; (P)) [Example 53, N—((S)-1-((3P)-3-(4-chloro-1-methyl-3-(methylsulfonamido)-1H-indazol-7-yl)-7-((2S,6R)-2,6-dimethylmorpholino)-4-oxo-3,4-dihydroquinazolin-2-yl)-2-(3,5-difluorophenyl)ethyl)-2-(1-cyclopropyl-1H-indol-3-yl)acetamide], in the series with recombinant NL4-3 virus, the EC50 was determined as 0.81 nM. The CC50 at 4 days in series [1] was over 500 nM.
Taken in the same sequence, the figures for `C[C@@H]1CN(c2ccc3c(=O)n(-c4ccc(Cl)c5c(NS(C)(=O)=O)nn(C)c45)c([C@H](Cc4cc(F)cc(F)c4)NC(=O)Cn4nc(C(F)(F)F)c5c4C(F)(F)[C@@H]4C[C@H]54)nc3c2)C[C@H](C)O1` (atropisomer, axis not shown; (P)) [Example 54, N—((S)-1-((3P)-3-(4-chloro-1-methyl-3-(methylsulfonamido)-1H-indazol-7-yl)-7-((2S,6R)-2,6-dimethylmorpholino)-4-oxo-3,4-dihydroquinazolin-2-yl)-2-(3,5-difluorophenyl)ethyl)-2-((3bS,4aR)-5,5-difluoro-3-(trifluoromethyl)-3b,4,4a,5-tetrahydro-1H-cyclopropa[3,4]cyclopenta[1,2-c]pyrazol-1-yl)acetamide] were 0.073 nM and over 500 nM.
As to `Cn1nc(NS(C)(=O)=O)c2c(Cl)ccc(-n3c([C@H](Cc4cc(F)cc(F)c4)NC(=O)Cn4nc(C(F)F)c5c4C(F)(F)[C@@H]4C[C@H]54)nc4cc(N5CC(C)(C)OC(C)(C)C5)ccc4c3=O)c21` (atropisomer, axis not shown; (P)) [Example 57, N—((S)-1-((3P)-3-(4-chloro-1-methyl-3-(methylsulfonamido)-1H-indazol-7-yl)-4-oxo-7-(2,2,6,6-tetramethylmorpholino)-3,4-dihydroquinazolin-2-yl)-2-(3,5-difluorophenyl)ethyl)-2-((3bS,4aR)-3-(difluoromethyl)-5,5-difluoro-3b,4,4a,5-tetrahydro-1H-cyclopropa[3,4]cyclopenta[1,2-c]pyrazol-1-yl)acetamide], the EC50 with recombinant NL4-3 virus is 0.077 nM. Also, in series [1], the CC50 at 4 days was over 500 nM.
On the same counts, the results for `C[C@@H]1CN(c2ccc3c(=O)n(-c4ccc(Cl)c5c(NS(C)(=O)=O)nn(CC(F)(F)F)c45)c([C@H](Cc4cc(F)cc(F)c4)NC(=O)Cn4nc(C(F)F)c5c4C(F)(F)[C@@H]4C[C@H]54)nc3c2)C[C@H](C)O1` (atropisomer, axis not shown; (P)) [Example 58, N—((S)-1-((3P)-3-(4-chloro-3-(methylsulfonamido)-1-(2,2,2-trifluoroethyl)-1H-indazol-7-yl)-7-((2S,6R)-2,6-dimethylmorpholino)-4-oxo-3,4-dihydroquinazolin-2-yl)-2-(3,5-difluorophenyl)ethyl)-2-((3bS,4aR)-3-(difluoromethyl)-5,5-difluoro-3b,4,4a,5-tetrahydro-1H-cyclopropa[3,4]cyclopenta[1,2-c]pyrazol-1-yl)acetamide] are 0.053 nM and over 500 nM.
As for `C[C@@H]1CN(c2ccc3c(=O)n(-c4ccc(Cl)c5c(NS(C)(=O)=O)nn(CC(F)(F)F)c45)c([C@H](Cc4cc(F)cc(F)c4)NC(=O)Cn4nc(C(F)F)cc4C4CC4)nc3c2)C[C@H](C)O1` (atropisomer, axis not shown; (P)) [Example 59, N—((S)-1-((3P)-3-(4-chloro-3-(methylsulfonamido)-1-(2,2,2-trifluoroethyl)-1H-indazol-7-yl)-7-((2S,6R)-2,6-dimethylmorpholino)-4-oxo-3,4-dihydroquinazolin-2-yl)-2-(3,5-difluorophenyl)ethyl)-2-(5-cyclopropyl-3-(difluoromethyl)-1H-pyrazol-1-yl)acetamide], the EC50 with recombinant NL4-3 virus stood at 0.42 nM. The CC50 at 4 days in series [1] was over 500 nM.
Take `C[C@@H]1CN(c2ccc3c(=O)n(-c4ccc(Cl)c5c(NS(C)(=O)=O)nn(CC(F)(F)F)c45)c([C@H](Cc4cc(F)cc(F)c4)NC(=O)Cn4nc(C5CC5)cc4C(F)F)nc3c2)C[C@H](C)O1` (atropisomer, axis not shown; (P)) [Example 60, N—((S)-1-((3P)-3-(4-chloro-3-(methylsulfonamido)-1-(2,2,2-trifluoroethyl)-1H-indazol-7-yl)-7-((2S,6R)-2,6-dimethylmorpholino)-4-oxo-3,4-dihydroquinazolin-2-yl)-2-(3,5-difluorophenyl)ethyl)-2-(3-cyclopropyl-5-(difluoromethyl)-1H-pyrazol-1-yl)acetamide]: in the series with recombinant NL4-3 virus, the EC50 came out at 0.36 nM. In addition, the CC50 at 4 days in series [1] was over 500 nM.
For `C[C@@H]1CN(c2ccc3c(=O)n(-c4ccc(Cl)c5c(NS(C)(=O)=O)nn(CC(F)(F)F)c45)c([C@H](Cc4cc(F)cc(F)c4)NC(=O)Cn4nc(C(F)(F)F)c5c4C(F)(F)[C@@H]4C[C@H]54)nc3c2)C[C@H](C)O1` (atropisomer, axis not shown; (P)) [Example 61, N—((S)-1-((3P)-3-(4-chloro-3-(methylsulfonamido)-1-(2,2,2-trifluoroethyl)-1H-indazol-7-yl)-7-((2S,6R)-2,6-dimethylmorpholino)-4-oxo-3,4-dihydroquinazolin-2-yl)-2-(3,5-difluorophenyl)ethyl)-2-((3bS,4aR)-5,5-difluoro-3-(trifluoromethyl)-3b,4,4a,5-tetrahydro-1H-cyclopropa[3,4]cyclopenta[1,2-c]pyrazol-1-yl)acetamide], in the series on recombinant NL4-3 virus, the EC50 turned out to be 0.084 nM. In series [1], the half-maximal cytotoxic concentration (CC50) at 4 days was over 500 nM.
`C[C@@H]1CN(c2ccc3c(=O)n(-c4ccc(Cl)c5c(NS(=O)(=O)C6CC6)nn(CC(F)(F)F)c45)c([C@H](Cc4cc(F)cc(F)c4)NC(=O)Cn4nc(C(F)F)c5c4C(F)(F)[C@@H]4C[C@H]54)nc3c2)C[C@H](C)O1` (atropisomer, axis not shown; (P)) [Example 62, N—((S)-1-((3P)-3-(4-chloro-3-(cyclopropanesulfonamido)-1-(2,2,2-trifluoroethyl)-1H-indazol-7-yl)-7-((2S,6R)-2,6-dimethylmorpholino)-4-oxo-3,4-dihydroquinazolin-2-yl)-2-(3,5-difluorophenyl)ethyl)-2-((3bS,4aR)-3-(difluoromethyl)-5,5-difluoro-3b,4,4a,5-tetrahydro-1H-cyclopropa[3,4]cyclopenta[1,2-c]pyrazol-1-yl)acetamide]: the EC50 in the series with recombinant NL4-3 virus is 0.067 nM. Moreover, the CC50 at 4 days in series [1] was over 500 nM.
Taken in the same sequence, the figures for `C[C@@H]1CN(c2ccc3c(=O)n(-c4ccc(Cl)c5c(NS(=O)(=O)C6CC6)nn(CC(F)(F)F)c45)c([C@H](Cc4cc(F)cc(F)c4)NC(=O)Cn4nc(C(F)(F)F)c5c4C(F)(F)[C@@H]4C[C@H]54)nc3c2)C[C@H](C)O1` (atropisomer, axis not shown; (P)) [Example 63, N—((S)-1-((3P)-3-(4-chloro-3-(cyclopropanesulfonamido)-1-(2,2,2-trifluoroethyl)-1H-indazol-7-yl)-7-((2S,6R)-2,6-dimethylmorpholino)-4-oxo-3,4-dihydroquinazolin-2-yl)-2-(3,5-difluorophenyl)ethyl)-2-((3bS,4aR)-5,5-difluoro-3-(trifluoromethyl)-3b,4,4a,5-tetrahydro-1H-cyclopropa[3,4]cyclopenta[1,2-c]pyrazol-1-yl)acetamide] were 0.15 nM and over 500 nM.
Taken in the same sequence, the figures for `CCS(=O)(=O)Nc1nn(C)c2c(-n3c([C@H](Cc4cc(F)cc(F)c4)NC(=O)Cn4nc(C(F)F)c5c4C(F)(F)[C@@H]4C[C@H]54)nc4cc(N5CCOCC5)ccc4c3=O)ccc(Cl)c12` (atropisomer, axis not shown; (P)) [Example 65, N—((S)-1-((3P)-3-(4-chloro-3-(ethylsulfonamido)-1-methyl-1H-indazol-7-yl)-7-morpholino-4-oxo-3,4-dihydroquinazolin-2-yl)-2-(3,5-difluorophenyl)ethyl)-2-((3bS,4aR)-3-(difluoromethyl)-5,5-difluoro-3b,4,4a,5-tetrahydro-1H-cyclopropa[3,4]cyclopenta[1,2-c]pyrazol-1-yl)acetamide] were 0.051 nM and over 500 nM.

(Values after patent US20210395262A1, “INHIBITORS OF HUMAN IMMUNODEFICIENCY VIRUS REPLICATION” (ViiV HEALTHCARE UK (NO.5) LIMITED, priority 2018, published 2021).)
